Assays:
Test in all cases: In vitro MIC, 2010 surveillance isolates
E. faecium VS = assay type: cell-based
MRSA = assay type: cell-based
E. cloacae CeftazR = assay type: cell-based
Acinetobacter spp = assay type: cell-based; details: for range of MICs (N <10, shown instead of MIC90): N=9
E. faecalis VS = assay type: cell-based
MR CoNS = assay type: cell-based, Coagulase-Negative Staphylococcus; details: for % R (resistance): Eucast breakpoints
A. baumanii = assay type: cell-based
MSSA = assay type: cell-based
K. pneumoniae ESBL− = assay type: cell-based, Klebsiella pneumoniae
K. pneumoniae ESBL+ = assay type: cell-based, Klebsiella pneumoniae
Enterobacter spp = assay type: cell-based
E. faecium VNS = assay type: cell-based
MS CoNS = assay type: cell-based, Coagulase-Negative Staphylococcus; details: for % R (resistance): Eucast breakpoints
E. coli ESBL+ = assay type: cell-based, Escherichia coli
E. faecalis VNS = assay type: cell-based
E. cloacae CeftazS = assay type: cell-based
K. oxytoca = assay type: cell-based

CN(C)c1cc(NC(=O)CNC(C)(C)C)c(O)c2c1C[C@H]1C[C@H]3[C@H](N(C)C)C(O)=C(C(N)=O)C(=O)[C@@]3(O)C(O)=C1C2=O [Tigecycline]
5.9%: % R (resistance) (K. oxytoca; Asia/Pac, Eucast breakpoints)
0.12 µg/mL: MIC90 (E. faecium VS; Asia/Pac, N=106) | MIC90 (E. faecium VS; Europe, N=303) | MIC90 (E. faecium VS; L. Amer, N=51) | MIC90 (E. faecium VNS; L. Amer, N=41)
2%: % R (resistance) (E. cloacae CeftazS; Asia/Pac, Eucast breakpoints)
0.5 µg/mL: MIC90 (E. cloacae CeftazR; Asia/Pac, N=63) | MIC90 (E. cloacae CeftazR; Europe, N=72) | MIC90 (Acinetobacter spp; N America, N=42) | MIC90 (K. pneumoniae ESBL−; Asia/Pac, N=189) | MIC90 (K. pneumoniae ESBL−; Europe, N=361) | MIC90 (K. pneumoniae ESBL−; L. Amer, N=160) | MIC90 (K. pneumoniae ESBL−; N America, N=671) | MIC90 (Enterobacter spp; L. Amer, N=42) | MIC90 (Enterobacter spp; N America, N=101) | MIC90 (E. coli ESBL+; Europe, N=274) | MIC90 (E. cloacae CeftazS; Asia/Pac, N=100) | MIC90 (E. cloacae CeftazS; Europe, N=183) | MIC90 (E. cloacae CeftazS; N America, N=210) | MIC90 (K. oxytoca; Asia/Pac, N=17) | MIC90 (K. oxytoca; Europe, N=158) | MIC90 (K. oxytoca; N America, N=177)
1.2%: % R (resistance) (Enterobacter spp; Europe, Eucast breakpoints)
≤0.03-2: range of MICs (N <10, shown instead of MIC90) (Acinetobacter spp; L. Amer)
0%: % R (resistance) (E. faecium VS; Asia/Pac, Eucast breakpoints) | % R (resistance) (E. faecium VS; Europe, Eucast breakpoints) | % R (resistance) (E. faecium VS; L. Amer, CLSI breakpoints) | % R (resistance) (E. faecium VS; N America, CLSI breakpoints) | % R (resistance) (MRSA; Asia/Pac, Eucast breakpoints) | % R (resistance) (MRSA; Europe, Eucast breakpoints) | % R (resistance) (MRSA; L. Amer, CLSI breakpoints) | % R (resistance) (MRSA; N America, CLSI breakpoints) | % R (resistance) (E. cloacae CeftazR; Europe, Eucast breakpoints) | % R (resistance) (E. cloacae CeftazR; L. Amer, CLSI breakpoints) | % R (resistance) (E. cloacae CeftazR; N America, CLSI breakpoints) | % R (resistance) (E. faecalis VS; Asia/Pac, Eucast breakpoints) | % R (resistance) (E. faecalis VS; Europe, Eucast breakpoints) | % R (resistance) (E. faecalis VS; L. Amer, CLSI breakpoints) | % R (resistance) (E. faecalis VS; N America, CLSI breakpoints) | % R (resistance) (MR CoNS; Asia/Pac) | % R (resistance) (MR CoNS; Europe) | % R (resistance) (MSSA; Asia/Pac, Eucast breakpoints) | % R (resistance) (MSSA; Europe, Eucast breakpoints) | % R (resistance) (MSSA; L. Amer, CLSI breakpoints) | % R (resistance) (MSSA; N America, CLSI breakpoints) | % R (resistance) (K. pneumoniae ESBL−; L. Amer, CLSI breakpoints) | % R (resistance) (K. pneumoniae ESBL−; N America, CLSI breakpoints) | % R (resistance) (K. pneumoniae ESBL+; L. Amer, CLSI breakpoints) | % R (resistance) (K. pneumoniae ESBL+; N America, CLSI breakpoints) | % R (resistance) (Enterobacter spp; L. Amer, CLSI breakpoints) | % R (resistance) (Enterobacter spp; N America, CLSI breakpoints) | % R (resistance) (E. faecium VNS; Asia/Pac, Eucast breakpoints) | % R (resistance) (E. faecium VNS; Europe, Eucast breakpoints) | % R (resistance) (E. faecium VNS; L. Amer, CLSI breakpoints) | % R (resistance) (E. faecium VNS; N America, CLSI breakpoints) | % R (resistance) (MS CoNS; Asia/Pac) | % R (resistance) (MS CoNS; Europe) | % R (resistance) (E. coli ESBL+; Asia/Pac, Eucast breakpoints) | % R (resistance) (E. coli ESBL+; Europe, Eucast breakpoints) | % R (resistance) (E. coli ESBL+; L. Amer, CLSI breakpoints) | % R (resistance) (E. coli ESBL+; N America, CLSI breakpoints) | % R (resistance) (E. faecalis VNS; Europe, Eucast breakpoints) | % R (resistance) (E. faecalis VNS; L. Amer, CLSI breakpoints) | % R (resistance) (E. faecalis VNS; N America, CLSI breakpoints) | % R (resistance) (E. cloacae CeftazS; Europe, Eucast breakpoints) | % R (resistance) (E. cloacae CeftazS; L. Amer, CLSI breakpoints) | % R (resistance) (E. cloacae CeftazS; N America, CLSI breakpoints) | % R (resistance) (K. oxytoca; Europe, Eucast breakpoints) | % R (resistance) (K. oxytoca; L. Amer, CLSI breakpoints) | % R (resistance) (K. oxytoca; N America, CLSI breakpoints)
3.2%: % R (resistance) (K. pneumoniae ESBL+; Asia/Pac, Eucast breakpoints)
≤0.03-0.25: range of MICs (N <10, shown instead of MIC90) (E. faecalis VNS; Europe, N=8)
1.6%: % R (resistance) (E. cloacae CeftazR; Asia/Pac, Eucast breakpoints)
≤0.03-1: range of MICs (N <10, shown instead of MIC90) (Acinetobacter spp; Asia/Pac)
0.25: range of MICs (N <10, shown instead of MIC90) (E. faecalis VNS; Asia/Pac, N=1)
2 µg/mL: MIC90 (E. cloacae CeftazR; N America, N=77) | MIC90 (Acinetobacter spp; Europe, N=43) | MIC90 (A. baumanii; Europe, N=145) | MIC90 (A. baumanii; L. Amer, N=275) | MIC90 (A. baumanii; N America, N=154) | MIC90 (K. pneumoniae ESBL+; L. Amer, N=209) | MIC90 (K. pneumoniae ESBL+; N America, N=108)
0.25 µg/mL: MIC90 (E. faecium VS; N America, N=115) | MIC90 (MRSA; Asia/Pac, N=428) | MIC90 (MRSA; Europe, N=750) | MIC90 (MRSA; L. Amer, N=506) | MIC90 (MRSA; N America, N=2508) | MIC90 (E. faecalis VS; Asia/Pac, N=214) | MIC90 (E. faecalis VS; Europe, N=669) | MIC90 (E. faecalis VS; L. Amer, N=290) | MIC90 (E. faecalis VS; N America, N=863) | MIC90 (MR CoNS; Asia/Pac, N=77) | MIC90 (MR CoNS; Europe, N=510) | MIC90 (MR CoNS; L. Amer, N=301) | MIC90 (MR CoNS; N America, N=461) | MIC90 (MSSA; Asia/Pac, N=641) | MIC90 (MSSA; Europe, N=2109) | MIC90 (MSSA; L. Amer, N=590) | MIC90 (MSSA; N America, N=2373) | MIC90 (E. faecium VNS; Asia/Pac, N=24) | MIC90 (E. faecium VNS; Europe, N=71) | MIC90 (E. faecium VNS; N America, N=478) | MIC90 (MS CoNS; Asia/Pac, N=18) | MIC90 (MS CoNS; Europe, N=185) | MIC90 (MS CoNS; L. Amer, N=67) | MIC90 (MS CoNS; N America, N=191) | MIC90 (E. coli ESBL+; Asia/Pac, N=219) | MIC90 (E. coli ESBL+; L. Amer, N=168) | MIC90 (E. coli ESBL+; N America, N=134) | MIC90 (E. faecalis VNS; N America, N=38)
0.3%: % R (resistance) (K. pneumoniae ESBL−; Europe, Eucast breakpoints)
≤0.03-0.06: range of MICs (N <10, shown instead of MIC90) (E. faecalis VNS; L. Amer, N=7)
1.1%: % R (resistance) (K. pneumoniae ESBL−; Asia/Pac, Eucast breakpoints)
3.8%: % R (resistance) (Enterobacter spp; Asia/Pac, Eucast breakpoints)
0.7%: % R (resistance) (K. pneumoniae ESBL+; Europe, Eucast breakpoints)
1 µg/mL: MIC90 (E. cloacae CeftazR; L. Amer, N=42) | MIC90 (A. baumanii; Asia/Pac, N=275) | MIC90 (K. pneumoniae ESBL+; Asia/Pac, N=124) | MIC90 (K. pneumoniae ESBL+; Europe, N=151) | MIC90 (Enterobacter spp; Asia/Pac, N=52) | MIC90 (Enterobacter spp; Europe, N=82) | MIC90 (E. cloacae CeftazS; L. Amer, N=57) | MIC90 (K. oxytoca; L. Amer, N=25)

Reference: US10238670B2, “9-aminomethyl minocycline compounds and methods of use thereof in urinary tract infection (UTI) treatment” (Paratek Pharmaceuticals, Inc., priority 2016, dated 2019)
